What all share (assay type): functional, cell-based
Series [1] addresses T1, Solute carrier family 22 member 19 (Mus musculus) (UniProt Q8VCA0).
T1 sequence (whole entry): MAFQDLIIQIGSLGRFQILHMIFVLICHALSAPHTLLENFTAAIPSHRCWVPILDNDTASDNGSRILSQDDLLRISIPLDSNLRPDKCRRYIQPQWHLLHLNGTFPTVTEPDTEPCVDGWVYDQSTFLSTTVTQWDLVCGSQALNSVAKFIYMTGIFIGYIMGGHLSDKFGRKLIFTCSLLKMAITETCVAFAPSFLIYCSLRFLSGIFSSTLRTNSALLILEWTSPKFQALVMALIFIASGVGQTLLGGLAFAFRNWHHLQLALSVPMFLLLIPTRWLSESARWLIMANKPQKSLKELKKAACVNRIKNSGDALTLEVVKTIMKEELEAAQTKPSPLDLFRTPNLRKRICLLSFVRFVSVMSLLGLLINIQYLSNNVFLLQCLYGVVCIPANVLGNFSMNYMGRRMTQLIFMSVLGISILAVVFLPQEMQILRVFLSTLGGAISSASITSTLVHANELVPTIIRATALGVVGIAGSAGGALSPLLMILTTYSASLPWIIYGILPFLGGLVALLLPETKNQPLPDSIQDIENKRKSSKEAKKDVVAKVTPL
Put plainly: TP_TRANSPORTER: inhibition of (Ochratoxin A: 0.5uM) of Estrone-3-sulfate at a concentration of 100uM in Oat5-expressing oocytes. Conditions: Xenopus laevis, Oocyte. On the set-up: scale not given: the % may be the effect or the level left.

For series [2], the target named is T1, Solute carrier family 22 member 19 (Mus musculus). Put plainly: TP_TRANSPORTER: inhibition of (Ochratoxin A: 0.5uM) of Probenecid at a concentration of 1000uM in Oat5-expressing Xenopus oocytes. Set-up: scale not given: the % may be the effect or the level left. Conditions: Xenopus laevis, Oocyte.
Series [3] has the same target. Put plainly: TP_TRANSPORTER: inhibition of (Ochratoxin A: 0.5uM) of 2,4-dichlorophenoxyacetic acid at a concentration of 100uM in Oat5-expressing oocytes. On the set-up: scale not given: the % may be the effect or the level left. The conditions noted are these: Xenopus laevis, Oocyte.
Substrate in series [4]: C[C@@H]1Cc2c(Cl)cc(C(=O)N[C@@H](Cc3ccccc3)C(=O)O)c(O)c2C(=O)O1
In words: TP_TRANSPORTER: uptake in Oat5-expressing oocytes. The conditions noted are these: Xenopus laevis; Oocyte.

For `C[C@]12CC[C@@H]3c4ccc(OS(=O)(=O)O)cc4CC[C@H]3[C@@H]1CCC2=O`, in series [1], the Activity is 5%.
On to `CCCN(CCC)S(=O)(=O)c1ccc(C(=O)O)cc1`, for which the Activity in series [2] was 25%.
As to `O=C(O)COc1ccc(Cl)cc1Cl`, in series [3], the Activity is 25%.

B1: Solute carrier family 22 member 19 (Mus musculus), Q8VCA0 (protein)
chain: MAFQDLIIQIGSLGRFQILHMIFVLICHALSAPHTLLENFTAAIPSHRCWVPILDNDTASDNGSRILSQDDLLRISIPLDSNLRPDKCRRYIQPQWHLLHLNGTFPTVTEPDTEPCVDGWVYDQSTFLSTTVTQWDLVCGSQALNSVAKFIYMTGIFIGYIMGGHLSDKFGRKLIFTCSLLKMAITETCVAFAPSFLIYCSLRFLSGIFSSTLRTNSALLILEWTSPKFQALVMALIFIASGVGQTLLGGLAFAFRNWHHLQLALSVPMFLLLIPTRWLSESARWLIMANKPQKSLKELKKAACVNRIKNSGDALTLEVVKTIMKEELEAAQTKPSPLDLFRTPNLRKRICLLSFVRFVSVMSLLGLLINIQYLSNNVFLLQCLYGVVCIPANVLGNFSMNYMGRRMTQLIFMSVLGISILAVVFLPQEMQILRVFLSTLGGAISSASITSTLVHANELVPTIIRATALGVVGIAGSAGGALSPLLMILTTYSASLPWIIYGILPFLGGLVALLLPETKNQPLPDSIQDIENKRKSSKEAKKDVVAKVTPL
As to B1, the Km in series [4] was 2 µM.

By Km is commonly meant the substrate concentration at which the rate is half of its maximum.

The record behind these values is ChEMBL document CHEMBL2074357, “Identification and functional assessment of the novel murine organic anion transporter Oat5 (Slc22a19) expressed in kidney” (Am J Physiol Renal Physiol, 2004).
